In patent US20230248833A1, “COMPOUND HAVING BTK KINASE DEGRADING ACTIVITY, AND PREPARATION METHOD AND PHARMACEUTICAL USE THEREFOR” (SICHUAN HAISCO PHARMACEUTICAL CO., LTD., priority 2020, published 2023):
Where two headings read alike, the source gives them in different places. Values belong to the compound of their own block, whether it stands above or below them.

Assays:
[1] = system: Mino cells; experiment: Inhibition of cell proliferation, Mino cells (Cell Viability Assay, 72 h); format: cell-based, human; details: for Mino Max inhi. %: inhibition rate at the highest concentration of the compound
Experimental: (§1) SU-DHL-4, Mino, and SU-DHL-6 cells, in the culture medium of RPMI1640+10% FBS, were cultured in an incubator at 37° C. under 5% CO2. Cells were plated in a 96-well plate. Specifically, SU-DHL-4 cells were at 20000/well, Mino and SU-DHL-6 cells were at 5000/well, with 90 μL/well. 10 μL of the compounds at different concentrations were added to each well. There were 3 replicate wells for each concentration, and the last column, added with DMSO, was used as a vehicle control group. The cultures were continued for 72 hours at 37° C. under 5% CO2. After 72 hours, 100 μL of detection reagent (Cell Viability Assay, Promega, G7573) was added to each well, and the cultures were uniformly mixed for 2 minutes, and incubated at room temperature for 10 minutes. The […] signal value was measured with a microplate reader (PHERAstar FSX). The IC50 value of the compound on cell proliferation inhibition was calculated using origin9.2 software, and the inhibition rate at the highest concentration of the compound (Max inhi.%) was calculated according to formula (1).
(§2) Max inhi.%=(1−T72administration/T72vehicle)×100 Formula (1).

[2] = Pharmacokinetic experiment in rats; format: in vivo; details: male, SD, rat, po, plasma, i.g. (20 mg/kg); for AUC(0-t): single dose
Experimental: Experimental objective: In this experiment, a single dose of each test compound was administered to SD rats intravenously and intragastrically, the concentrations of the test compound in plasma of rats were measured, and the pharmacokinetic characteristics and bioavailability of the test compound in rats were evaluated.
Experimental animals: Male SD rats, about 200 g, 6-8 weeks old, 6 rats/compound. Rats were purchased from Hunan SJA Laboratory Animal Co., Ltd, with the laboratory animal production license number of SCXK (Xiang) 2019-004.
Experimental method: On the day of the experiment, 6 SD rats were randomly grouped according to their body weight. The animals were fasted with water available for 12 to 14 hours one day before the administration of a test compound, and were fed 4 hours after the administration.
Before and after the administration, […] of blood was taken from the orbit of the rats under isoflurane anesthesia, and placed in an EDTAK2 centrifuge tube. Centrifugation was carried out at 5000 rpm at 4° C. for 10 min, and the plasma was collected.
Time points for sample collection in G1&G2 groups comprise
Before analysis and detection, all samples were stored at −80° C. The samples were detected by HPLC-MS/MS.

[3] = system: SU-DHL-6 cells; experiment: Inhibition of cell proliferation, SU-DHL-6 cells (Cell Viability Assay, 72 h); format: cell-based, human
Experimental: as §1, §2

Structure (SMILES): NC(=O)c1c(-c2ccc(Oc3ccccc3)cc2)nn2c1NCC[C@H]2C1CCN(C2CCN(CC3CCN(c4ccc5c(c4)C(=O)N(C4CCC(=O)NC4=O)C5=O)CC3)CC2)CC1 (stereo partly drawn) [Compound 81, (7S)-7-(1′-((1-(2-(2,6-dioxopiperidin-3-yl)-1,3-dioxoisoindolin-5-yl)piperidin-4-yl)methyl)-[1,4′-bipiperidin]-4-yl)-2-(4-phenoxyphenyl)-4,5,6,7-tetrahydropyrazolo[1,5-a]pyrimidine-3-carboxamide]
Mino Max inhi. % [1]: 99.9%

Structure (SMILES): NC(=O)c1c(-c2ccc(Oc3ccccc3)cc2)nn2c1NCC[C@H]2C1CCN(C2CCN(CC3CN(c4ccc5c(c4)C(=O)N(C4CCC(=O)NC4=O)C5=O)C3)CC2)CC1 (stereo partly drawn) [Compound 82, (7S)-7-(1′-((1-(2-(2,6-dioxopiperidin-3-yl)-1,3-dioxoisoindolin-5-yl)azetidin-3-yl)methyl)-[1,4′-bipiperidin]-4-yl)-2-(4-phenoxyphenyl)-4,5,6,7-tetrahydropyrazolo [1,5-a]pyrimidine-3-carboxamide]
Mino Max inhi. % [1]: 99.9%

Structure (SMILES): NC(=O)c1c(-c2ccc(Oc3ccccc3)cc2)nn2c1NCC[C@H]2C1CCN(CC2CCN(c3ccc4c(c3)C(=O)N(C3CCC(=O)NC3=O)C4=O)CC2)CC1 (stereo partly drawn) [Compound 83, (7S)-7-(1-((1-(2-(2,6-dioxopiperidin-3-yl)-1,3-dioxoisoindolin-5-yl)piperidin-4-yl)methyl)piperidin-4-yl)-2-(4-phenoxyphenyl)-4,5,6,7-tetrahydropyrazolo[1,5-a]pyrimidine-3-carboxamide]
Mino Max inhi. % [1]: 99.7%

Structure (SMILES): Nc1ncnc2c1c(-c1ccc(Oc3ccccc3)cc1)nn2C1CCN(C2CCN(CC3CCN(c4ccc5c(c4)C(=O)N(C4CCC(=O)NC4=O)C5=O)CC3)CC2)CC1 (stereo not drawn) [Compound 86, 5-(4-((4-(4-amino-3-(4-phenoxyphenyl)-1H-pyrazolo[3,4-d]pyrimidin-1-yl)-[1,4′-bipiperidin]-1′-yl)methyl)piperidin-1-yl)-2-(2,6-dioxopiperidin-3-yl)isoindoline-1,3-dione]
IC50 ([1]; Homo sapiens, MINO, 72 h): 42 nM
AUC(0-t) [2]: 247 ± 73 ng·h/mL

Structure (SMILES): Nc1ncnc2c1c(-c1ccc(Oc3ccccc3)c(F)c1)nn2C1CCN(C2CN(C3CN(c4ccc5c(c4)C(=O)N(C4CCC(=O)NC4=O)C5=O)C3)C2)CC1 (stereo not drawn) [Compound 95, 5-(3-(4-(4-amino-3-(3-fluoro-4-phenoxyphenyl)-1H-pyrazolo[3,4-d]pyrimidin-1-yl)piperidin-1-yl)-[1,3′-biazetidin]-1′-yl)-2-(2,6-dioxopiperidin-3-yl)isoindoline-1,3-dione]
IC50 ([1]; Homo sapiens, MINO, 72 h): 100 nM
bioavailability ([2]; bioavailability): 12.3 ± 2.1%
AUC(0-t) [2]: 4270 ± 739 ng·h/mL

Structure (SMILES): Nc1ncnc2c1c(-c1ccc(Oc3ccccc3)c(F)c1)nn2C1CCN(C2CCN(C3CN(c4ccc5c(c4)C(=O)N(C4CCC(=O)NC4=O)C5=O)C3)CC2)CC1 (stereo not drawn) [Compound 96, 5-(3-(4-(4-amino-3-(3-fluoro-4-phenoxyphenyl)-1H-pyrazolo[3,4-d]pyrimidin-1-yl)-[1,4′-bipiperidin]-1′-yl)azetidin-1-yl)-2-(2,6-dioxopiperidin-3-yl)isoindoline-1,3-dione]
IC50 ([1]; Homo sapiens, MINO, 72 h): 501 nM

Structure (SMILES): Nc1ncnc2c1c(-c1ccc(Oc3ccccc3)cc1)nn2C1CCN(C2CC3(CCN(CC4CN(c5ccc6c(c5)C(=O)N(C5CCC(=O)NC5=O)C6=O)C4)CC3)C2)CC1 (stereo not drawn) [Trifluoroacetate of compound 101, 5-(3-((2-(4-(4-amino-3-(4-phenoxyphenyl)-1H-pyrazolo[3,4-d]pyrimidin-1-yl)piperidin-1-yl)-7-azaspiro[3.5]nonan-7-yl)methyl)azetidin-1-yl)-2-(2,6-dioxopiperidin-3-yl)isoindoline-1,3-dione]
IC50 ([3]; Homo sapiens, SU-DHL-6, 72 h): 77 nM
IC50 ([1]; Homo sapiens, MINO, 72 h): 77 nM

Further lines, with some results ahead:

AUC(0-t) [2]: 176 ± 57 ng·h/mL
Structure (SMILES): Nc1ncnc2c1c(-c1ccc(Oc3ccccc3)cc1)nn2C1CCN(C2CCN(CC3CN(c4ccc5c(c4)C(=O)N(C4CCC(=O)NC4=O)C5=O)C3)CC2)CC1 (stereo not drawn) [Compound 84, 5-(3-((4-(4-amino-3-(4-phenoxyphenyl)-1H-pyrazolo[3,4-d]pyrimidin-1-yl)-[1,4′-bipiperidin]-1′-yl)methyl)azetidin-1-yl)-2-(2,6-dioxopiperidin-3-yl)isoindoline-1,3-dione]
IC50 ([1]; Homo sapiens, MINO, 72 h): 32 nM

IC50 ([3]; Homo sapiens, SU-DHL-6, 72 h): 331 nM
Structure (SMILES): Nc1ncnc2c1c(-c1ccc(Oc3ccccc3)cc1)nn2C1CCN(C2CN(CC3CN(c4cccc5c4C(=O)N(C4CCC(=O)NC4=O)C5=O)C3)C2)CC1 (stereo not drawn) [Compound 105, 4-(3-((3-(4-(4-amino-3-(4-phenoxyphenyl)-1H-pyrazolo[3,4-d]pyrimidin-1-yl)piperidin-1-yl)azetidin-1-yl)methyl)azetidin-1-yl)-2-(2,6-dioxopiperidin-3-yl)isoindoline-1,3-dione]
IC50 ([1]; Homo sapiens, MINO, 72 h): 208 nM

AUC(0-t) [2]: 610 ± 131 ng·h/mL
Structure (SMILES): Nc1ncnc2c1c(-c1ccc(Oc3ccccc3)cc1)nn2C1CCN(C2CN(CC3CN(c4ccc5c(c4)CN(C4CCC(=O)NC4=O)C5=O)C3)C2)CC1 (stereo not drawn) [Compound 107, 3-(5-(3-((3-(4-(4-amino-3-(4-phenoxyphenyl)-1H-pyrazolo[3,4-d]pyrimidin-1-yl)piperidin-1-yl)azetidin-1-yl)methyl)azetidin-1-yl)-1-oxoisoindolin-2-yl)piperidine-2,6-dione]

IC50 ([3]; Homo sapiens, SU-DHL-6, 72 h): 99 nM
Structure (SMILES): Nc1ncnc2c1c(-c1ccc(Oc3ccccc3)cc1)nn2C1CCN(C2C[C@@H]3CN(CC4CN(c5ccc6c(c5)C(=O)N(C5CCC(=O)NC5=O)C6=O)C4)C[C@@H]3C2)CC1 (stereo partly drawn) [Trifluoroacetate of compound 100, 5-(3-(((3aR,6aS)-5-(4-(4-amino-3-(4-phenoxyphenyl)-1H-pyrazolo[3,4-d]pyrimidin-1-yl)piperidin-1-yl)hexahydrocyclopenta[c]pyrrol-2(1H)-yl)methyl)azetidin-1-yl)-2-(2,6-dioxopiperidin-3-yl)isoindoline-1,3-dione]
IC50 ([1]; Homo sapiens, MINO, 72 h): 123 nM

IC50 ([3]; Homo sapiens, SU-DHL-6, 72 h): 23 nM
Structure (SMILES): Nc1ncnc2c1c(-c1ccc(Oc3ccccc3)cc1)nn2C1CCN(C2CN(C3CN(CC4CN(c5ccc6c(c5)C(=O)N(C5CCC(=O)NC5=O)C6=O)C4)C3)C2)CC1 (stereo not drawn) [Trifluoroacetate of compound 102, 5-(3-((3-(4-(4-amino-3-(4-phenoxyphenyl)-1H-pyrazolo[3,4-d]pyrimidin-1-yl)piperidin-1-yl)-[1,3′-biazetidin]-1′-yl)methyl)azetidin-1-yl)-2-(2,6-dioxopiperidin-3-yl)isoindoline-1,3-dione]
IC50 ([1]; Homo sapiens, MINO, 72 h): 42 nM

IC50 [3]: 22 nM
Structure (SMILES): Nc1ncnc2c1c(-c1ccc(Oc3ccccc3)cc1)nn2C1CCN(C2CN(CC3CN(c4ccc5c(c4)CN(C4CCC(=O)NC4=O)C5=O)C3)C2)CC1 (stereo not drawn) [Trifluoroacetate of compound 107, 3-(5-(3-((3-(4-(4-amino-3-(4-phenoxyphenyl)-1H-pyrazolo[3,4-d]pyrimidin-1-yl)piperidin-1-yl)azetidin-1-yl)methyl)azetidin-1-yl)-1-oxoisoindolin-2-yl)piperidine-2,6-dione]
IC50 [1]: 34 nM

IC50 [3]: 145 nM
Structure (SMILES): Nc1ncnc2c1c(-c1ccc(Oc3ccccc3)cc1)nn2C1CCN(C2CN(CC3CN(Cc4ccc5c(c4)C(=O)N(C4CCC(=O)NC4=O)C5=O)C3)C2)CC1 (stereo not drawn) [Trifluoroacetate of compound 109, 5-((3-((3-(4-(4-amino-3-(4-phenoxyphenyl)-1H-pyrazolo[3,4-d]pyrimidin-1-yl)piperidin-1-yl)azetidin-1-yl)methyl)azetidin-1-yl)methyl)-2-(2,6-dioxopiperidin-3-yl)isoindoline-1,3-dione]
IC50 [1]: 356 nM
